The results in this text go back to patent publication US8318731B2, “Pyrrolopyrimidines” (Janssen Pharmaceutica NV, priority 2007, dated 2012).

For one experiment, the target named is T1, PLK4 (h) (Homo sapiens, UniProt O00444).
T1 sequence (O00444 1-970): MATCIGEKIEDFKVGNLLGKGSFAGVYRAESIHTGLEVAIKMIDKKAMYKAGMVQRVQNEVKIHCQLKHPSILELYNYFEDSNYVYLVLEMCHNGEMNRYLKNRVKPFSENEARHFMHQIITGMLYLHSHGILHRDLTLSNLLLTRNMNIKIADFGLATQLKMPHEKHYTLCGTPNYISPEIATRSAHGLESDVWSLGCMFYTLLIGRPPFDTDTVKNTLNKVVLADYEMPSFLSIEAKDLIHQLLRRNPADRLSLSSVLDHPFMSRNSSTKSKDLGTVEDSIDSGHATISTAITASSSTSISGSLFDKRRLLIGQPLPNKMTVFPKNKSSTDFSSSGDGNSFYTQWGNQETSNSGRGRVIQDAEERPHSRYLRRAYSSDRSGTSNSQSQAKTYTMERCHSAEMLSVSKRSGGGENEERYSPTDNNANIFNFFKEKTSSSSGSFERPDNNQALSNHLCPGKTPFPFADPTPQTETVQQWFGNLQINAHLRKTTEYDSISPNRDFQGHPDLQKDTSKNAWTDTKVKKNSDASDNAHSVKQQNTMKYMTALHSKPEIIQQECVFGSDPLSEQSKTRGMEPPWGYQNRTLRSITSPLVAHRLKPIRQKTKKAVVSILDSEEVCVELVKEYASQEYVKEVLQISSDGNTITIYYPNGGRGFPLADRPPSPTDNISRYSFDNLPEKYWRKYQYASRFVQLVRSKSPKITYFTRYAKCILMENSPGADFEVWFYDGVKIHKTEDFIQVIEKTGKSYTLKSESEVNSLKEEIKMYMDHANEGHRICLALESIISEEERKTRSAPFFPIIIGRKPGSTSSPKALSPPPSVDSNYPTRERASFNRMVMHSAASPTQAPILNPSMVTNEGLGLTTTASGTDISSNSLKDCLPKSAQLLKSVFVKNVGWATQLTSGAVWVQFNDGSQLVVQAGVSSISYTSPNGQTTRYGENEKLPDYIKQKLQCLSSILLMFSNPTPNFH
Nature of the experiment: PLK-4 human kinase scintillation proximity assay (SPA). The conditions noted are these: 1 μM ATP, 60 minutes at r.t., read-out: PLK4 pIC50 (converted). It counts as biochemical. The method in brief:
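Human PLK4 (19 μg/ml) reacted with 10 μM biotinylated peptide, 1 μM ATP plus 2 nM [γ-33P]ATP in HEPES pH 8.0 with MgCl2, NaCl, NaF and DTT for 60 min at r.t. After an EDTA stop, phosphorylated substrate was captured on streptavidin PVT SPA beads and scintillation imaged.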
For orientation: Scintillation proximity formats need no separation of bound from free tracer.

Another experiment concerns HCT-116. Nature of the experiment: Cellular proliferation assay (Alamar blue), HCT-116. The settings on record: Homo sapiens; HCT-116 cells; 10% FCS; 72 h with compound; Alamar blue 4 h; read-out: pIC50 HCT-116 (converted). Format: cell-based. The method in brief:
(§1)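 Cells seeded 24 h, then exposed to compounds for 72 h in 10% FCS at 37° C, 5% CO2. Viability by Alamar blue (resazurin 9 μg/ml) fluorescence at 544/590 nm after 4 h (HCT-116), 6 h (U87-MG) or 24 h (A2780, PC3) dye incubation; effect expressed relative to control cells.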
Background: Resazurin is reduced to fluorescent resorufin, in cell work by metabolically active cells.

The next experiment concerns H1299. Nature of the experiment: Cellular proliferation assay (Alamar blue), H1299. It counts as cell-based. The settings on record: Homo sapiens, NCI-H1299, H1299 cells; 10% FCS; 72 h with compound; Alamar blue 4 h; read-out: pIC50 H1299 (converted). The method in brief: (§2)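 Viable cell number is determined by Alamar blue conversion after cells are treated with compound for 72 hours, following 24 hours of growth without compound in 10% FCS. The effect is calculated against control cells.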

Another experiment deals with U87-MG. Nature of the experiment: Cellular proliferation assay (Alamar blue), U87-MG. The conditions noted are these: Homo sapiens, U-87 MG; U87-MG cells; 10% FCS; 72 h with compound; Alamar blue 6 h; read-out: pIC50 U87MG (converted). It counts as cell-based. How it is done: Cellular proliferation of these compounds was tested on a panel of different cell lines in the presence of 10% FCS serum (37° C. and 5% (v/v) CO2). In a first step these cells were seeded and incubated for 24 hours in the absence of compound. In the second step the cells were incubated for 72 hours with the compounds to be tested for 72 hours. The viable cell number was finally assessed in a standard Alamar blue cell viability assay.
The viable cell number was assessed by incubation for either 4 h (HCT-116, H1299) 6 h (U87-MG) or 24 h (A2780, PC3, MDA-MB-231) with Alamar blue (Resazurin 9 μg/ml, K-Ferrocyanide 90 μM, K-Ferricyanide 90 μM) and the converted fluorescent product was quantified on a fluorescent plate readed (544 nm/590 nm). Effect of the compounds is calculated as of on control cells.

The next experiment relates to A2780. Briefly: Cellular proliferation assay (Alamar blue), A2780. It counts as cell-based. The conditions noted are these: Homo sapiens, A2780, A2780 cells; 10% FCS; 72 h with compound; Alamar blue 24 h; read-out: pIC50 A2780 (converted). The method in brief:
as §1

The subject of another experiment is PC3. Nature of the experiment: Cellular proliferation assay (Alamar blue), PC3. The conditions noted are these: Homo sapiens, PC-3, PC-3 cells; 10% FCS; 72 h with compound; Alamar blue 24 h; read-out: pIC50 PC-3 (converted). Format: cell-based. The method in brief: as §1
The next experiment concerns MDA-MB-231. Briefly: Cellular proliferation assay (Alamar blue), MDA-MB-231. It counts as cell-based. The conditions noted are these: Homo sapiens, MDA-MB-231, MDA-MB-231 cells; 10% FCS; 72 h with compound; Alamar blue 24 h; read-out: pIC50 MDA/MB231 (converted). The method in brief: as §2

Turning to `COc1cc2cc(c1OC)CCC(=O)N(C)CCCN(C)Cc1c[nH]c3ncnc(c13)N2` [Compound 30], the IC50 on PLK4 (h), in the experiment with HCT-116, in the experiment with H1299, in the experiment on U87-MG, in the experiment with A2780 and in the experiment on PC3 was above 10 µM each time. Further, in the experiment on MDA-MB-231, the IC50 is above 10 µM.

As for `CN1CCN(C)C(=O)CCCOc2cccc(c2)Nc2ncnc3[nH]cc(c23)C1` [Compound 31], the IC50 was 0.794 µM at PLK4 (h); 6.31 µM in the experiment on HCT-116; above 10 µM in the experiment on H1299; above 10 µM with U87-MG; 3.98 µM with A2780; above 10 µM in the experiment with PC3. Moreover, the IC50 in the experiment on MDA-MB-231 is above 10 µM.

Regarding `COc1ccc2cc1OCC(=O)NCN(C)CCCc1c[nH]c3ncnc(c13)N2` [Compound 33], the IC50 at PLK4 (h) was 5.01 µM; with HCT-116, above 10 µM; in the experiment on H1299, above 10 µM; in the experiment with U87-MG it was above 10 µM; in the experiment on A2780 it was above 10 µM; with PC3, above 10 µM. In addition, the IC50 in the experiment with MDA-MB-231 was above 10 µM.

Consider `COc1ccc2cc1CN(C)CC(=O)N(C)CCCc1c[nH]c3ncnc(c13)N2` [Compound 34], for which the IC50 on PLK4 (h), in the experiment on HCT-116, in the experiment on H1299, in the experiment on U87-MG, in the experiment on A2780 and in the experiment with PC3 was above 10 µM in each case. In addition, the IC50 in the experiment on MDA-MB-231 is above 10 µM.

As for `COc1ccc2cc1CN1CCCC(C1)C(=O)N(C)CCCc1c[nH]c3ncnc(c13)N2` (stereo not drawn) [Compound 35], the IC50 at PLK4 (h), with HCT-116, in the experiment on H1299, in the experiment on U87-MG, in the experiment on A2780 and in the experiment on PC3 was above 10 µM throughout. Besides, the IC50 in the experiment with MDA-MB-231 was above 10 µM.

`COCCN1CC(=O)N(C)CCCc2c[nH]c3ncnc(c23)Nc2ccc(OC)c(c2)C1` [Compound 36]: the IC50 on PLK4 (h), in the experiment with HCT-116, with H1299, in the experiment on U87-MG, with A2780 and in the experiment on PC3 was above 10 µM throughout. For the same molecule, the IC50 in the experiment on MDA-MB-231 is above 10 µM.

Turning to `COc1ccc2cc1CN(C(C)C)CC(=O)N(C)CCCc1c[nH]c3ncnc(c13)N2` [Compound 37], the IC50 at PLK4 (h), in the experiment on HCT-116, in the experiment on H1299, in the experiment with U87-MG, in the experiment on A2780 and with PC3 was above 10 µM in each case. The IC50 in the experiment with MDA-MB-231 is above 10 µM.

As for `COc1ccc2cc1OCC(=O)N1CCC[C@@H]1CN(C)CCCc1c[nH]c3ncnc(c13)N2` [Compound 38], the IC50 on PLK4 (h), with HCT-116, with H1299, with U87-MG, in the experiment on A2780 and in the experiment with PC3 was above 10 µM throughout. Also, the IC50 in the experiment on MDA-MB-231 was above 10 µM.

As for `CN1CCN(C)C(=O)CCCOc2cc(ccc2N2CCOCC2)Nc2ncnc3[nH]cc(c23)C1` [Compound 40], the IC50 on PLK4 (h) is 1.26 µM; in the experiment on HCT-116, above 10 µM; in the experiment with H1299 it was above 10 µM; in the experiment on U87-MG, above 10 µM; in the experiment with A2780 it was above 10 µM; with PC3, above 10 µM. Moreover, in the experiment on MDA-MB-231, the IC50 is above 10 µM.

As to `COc1ccc2cc1OCCCCC(=O)N(C)CCN(C)Cc1c[nH]c3ncnc(c13)N2` [Compound 41], the IC50 on PLK4 (h) is 2.51 µM; in the experiment on HCT-116, above 10 µM; with H1299, above 10 µM; in the experiment on U87-MG, above 10 µM; in the experiment with A2780, above 10 µM; with PC3, above 10 µM. Besides, the IC50 with MDA-MB-231 is above 10 µM.

With `CN1CCN(C)C(=O)CCCOc2cc(ccc2Cl)Nc2ncnc3[nH]cc(c23)C1` [Compound 42], the IC50 at PLK4 (h) was 0.794 µM; in the experiment with HCT-116, above 10 µM; in the experiment on H1299, above 10 µM; in the experiment on U87-MG, above 10 µM; in the experiment with A2780, above 10 µM; in the experiment with PC3, above 10 µM. In addition, in the experiment with MDA-MB-231, the IC50 was above 10 µM.

`CN1CCCN(C)C(=O)CCCOc2cc(ccc2N2CCOCC2)Nc2ncnc3[nH]cc(c23)C1` [Compound 44]: the IC50 at PLK4 (h) is 1.58 µM; in the experiment with HCT-116 it was above 10 µM; with H1299, above 10 µM; with U87-MG it was above 10 µM; in the experiment with A2780, above 10 µM; in the experiment with PC3, above 10 µM. For the same molecule, the IC50 in the experiment on MDA-MB-231 was above 10 µM.

`CN1CCN(C)C(=O)CCc2cc(ccc2N2CCOCC2)Nc2ncnc3[nH]cc(c23)C1` [Compound 45]: the IC50 at PLK4 (h) was 3.16 µM; with HCT-116, above 10 µM; in the experiment on H1299, above 10 µM; in the experiment on U87-MG, above 10 µM; in the experiment with A2780, above 10 µM; in the experiment on PC3, above 10 µM. Also, in the experiment on MDA-MB-231, the IC50 was above 10 µM.

For the molecule `COc1ccc2cc1CCC(=O)N(C)CCN(C)Cc1c[nH]c3ncnc(c13)N2` [Compound 46], the IC50 is 1 µM at PLK4 (h); above 10 µM in the experiment on HCT-116; above 10 µM with H1299; above 10 µM with U87-MG; above 10 µM with A2780; above 10 µM with PC3. The IC50 with MDA-MB-231 was above 10 µM.

Turning to `COc1cc2cc(c1OC)CCC(=O)N(C)CCN(C)Cc1c[nH]c3ncnc(c13)N2` [Compound 47], the IC50 at PLK4 (h) is 6.31 µM; with HCT-116, above 10 µM; in the experiment with H1299, above 10 µM; in the experiment on U87-MG it was above 10 µM; in the experiment with A2780, above 10 µM; in the experiment with PC3 it was above 10 µM. In addition, the IC50 with MDA-MB-231 was above 10 µM.

Turning to `CN1CCN(C)C(=O)CCCCOc2cc(ccc2N2CCOCC2)Nc2ncnc3[nH]cc(c23)C1` [Compound 48], the IC50 on PLK4 (h), in the experiment on HCT-116, with H1299, with U87-MG, in the experiment on A2780 and with PC3 was above 10 µM throughout. Besides, the IC50 in the experiment on MDA-MB-231 is above 3.16 µM.

For `CN1CCN(C)C(=O)CCCCOc2cc(ccc2Cl)Nc2ncnc3[nH]cc(c23)C1` [Compound 49], the IC50 on PLK4 (h) was 3.16 µM; in the experiment with HCT-116 it was above 10 µM; in the experiment with H1299 it was above 10 µM; with U87-MG it was above 10 µM; with A2780, above 10 µM; in the experiment with PC3, above 10 µM. Moreover, the IC50 in the experiment on MDA-MB-231 was above 10 µM.

Consider `CN1CCCN(C)C(=O)COc2cc(cc(C(F)(F)F)c2)Nc2ncnc3[nH]cc(c23)C1` [Compound 54], for which the IC50 was 0.251 µM on PLK4 (h); above 10 µM with HCT-116; above 10 µM with H1299; above 10 µM in the experiment on U87-MG; above 10 µM in the experiment on A2780; above 10 µM in the experiment on PC3. The IC50 in the experiment with MDA-MB-231 is above 10 µM.
